Earlier results on 8 compounds are cited in US8734826B2 (priority 2005, dated 2014).

Like-named read-outs stand apart in the source and are kept apart here.

The test system of data set [1] is anal sphincter. As to conditions: in vivo.
The subject of data set [2] is anal fissure. To be noted: in vivo.
The subject of data set [3] is internal anal sphincter smooth muscle.
The conditions of data set [4]: in vivo.
Data set [5] has as its system pre-synaptic cholinergic nerve terminals. To be noted: in vivo.

Regarding `N=C(N)NCCC[C@H](N)C(=O)O` [L-arginine], the resting anal pressure result in data set [1] is “causes a reduction in resting anal pressure”.

Consider `CC(C[N+](C)(C)C)OC(N)=O` (centres unmarked) [bethanecol], for which the resting anal pressure entry in data set [1] is given as “reducing resting anal pressure”. In addition, in data set [2], the “healing of anal fissures” value is “increased healing of anal fissures”.

As to `COc1ccc([C@@H]2Sc3ccccc3N(CCN(C)C)C(=O)[C@@H]2OC(C)=O)cc1` [diltiazem], the resting anal pressure result is “reduce resting anal pressure” in data set [1] and “caused a reduction in resting anal pressure” in data set [1] (po). Besides, in data set [2], the fissure healing result is on record as “results in fissure healing”.

For `O=C(NC1CCN(CCc2c[nH]c3ccccc23)CC1)c1ccccc1` [indoramin], the resting anal pressure entry in data set [1] (po) is on record as “reduce resting anal pressure”.

For the compound `O=[N+]([O-])O[C@H]1CO[C@H]2[C@@H]1OC[C@H]2O[N+](=O)[O-]` [isorbide dinitrate], the “relaxation of internal anal sphincter smooth muscle” value in data set [3] is “cause a relaxation of internal anal sphincter smooth muscle”. Further, the “pain reduction and fissure healing” value in data set [2] was “pain reduction and increased fissure healing”.

`O=[N+]([O-])OCC(CO[N+](=O)[O-])O[N+](=O)[O-]` [nitroglycerin]: the “relaxation of internal anal sphincter smooth muscle” value in data set [3] was “cause a relaxation of internal anal sphincter smooth muscle”. Besides, the “pain reduction and fissure healing” value in data set [2] was “pain reduction and increased fissure healing”.

As to `CC(C)(C)NCC(O)c1ccc(O)c(CO)c1` (centres unmarked) [salbutamol], the resting anal pressure entry in data set [1] was “reduce resting anal pressure”.

Take Botulinum toxin: in data set [1], the voluntary squeeze pressure result is listed as “reduction in voluntary squeeze pressure”. In data set [2], the fissure healing entry was “healing of the fissure”; the “pain and fissure healing” value was “reduced pain and promoted fissure healing”. In addition, in data set [4], the peri-anal thrombosis result is on record as “peri-anal thrombosis has been reported in some patients”. Moreover, the “duration of clinical weakening of the muscle” value in data set [5] is on record as 3 to 4 months.
